Test system: eggs of C. felis
Experiment: Eggs and larvae of C. felis, egg to adult development assay (Test A, Test Example 1)
Format: in vivo
Details: 30 eggs x 3 replicates, 28 days
Protocol: Eggs and Larvae of C. felis—Egg to Adult Development Assay A larval support media was prepared consisting of 1 g dried bovine blood, 1 g dog biscuit and 5 g of fine sand. Two grams of the larval support media were placed into a 30 mL container for treatment with the test compound and drying. The test compound (3-bromo-N-[4-chloro-2-methyl-6-(methylcarbamoyl)phenyl]-1-(3-chloropyridin-2-yl)-1H-pyrazole-5-carboxamide) was prepared in acetone and serially diluted prior to testing. The concentrations used were as follows: 1 ug/uL, 0.5, 0.25, 0.125, 0.0625 ug/uL. 30 eggs of C. felis were placed into the culturing medium. Each concentration was replicated 3 times giving a total of 90 eggs per dose level. The untreated control was treated with acetone only. The containers were placed into a temperature and humidity controlled room and maintained for 28 days. After the incubation period had elapsed the containers were placed into a freezer for 1 hour. The adults and pupae were counted and % of adults and pupae that developed at each dose level was calculated. The activity was compared to Methoprene.

[1] = concentration 0.0625 (ug/uL) in treated larval support media
[2] = concentration 0.125 (ug/uL) in treated larval support media
[3] = concentration 0.25 (ug/uL) in treated larval support media
[4] = concentration 0.5 (ug/uL) in treated larval support media
[5] = concentration 1.0 (ug/uL) in treated larval support media

Compound	% eggs developed into adults [1]	% eggs developed into adults [2]	% eggs developed into adults [3]	% eggs developed into adults [4]	% eggs developed into adults [5]
COC(C)(C)CCC[C@H](C)C/C=C/C(C)=C/C(=O)OC(C)C (racemic) [Methoprene]	14.4%	3.3%	1.1%	0.0%	0.0%
CNC(=O)c1cc(Cl)cc(C)c1NC(=O)c1cc(Br)nn1-c1ncccc1Cl [Test Compound, 3-bromo-N-[4-chloro-2-methyl-6-(methylcarbamoyl)phenyl]-1-(3-chloropyridin-2-yl)-1H-pyrazole-5-carboxamide]	18.9%	0.0%	0.0%	0.0%	0.0%
